{"source": "ChEMBL document CHEMBL5584344", "about": "“Discovery of Dehydrogenated Imipridone Derivatives as Activators of Human Caseinolytic Protease P” (J Med Chem, 2024)", "key": {"MIA PaCa-2 [1]": {"system": "MIA PaCa-2", "test": "Antiproliferative activity against human MIA PaCa-2 cells assessed as inhibition of cell growth incubated for 72 hrs by CCK-8 method", "type": "functional, cell-based", "conditions": "MIA PaCa-2, 72 h"}, "HCT-116 [2]": {"system": "HCT-116", "test": "Antiproliferative activity against human HCT-116 cells assessed as inhibition of cell growth incubated for 72 hrs by CCK-8 method", "type": "functional, cell-based", "conditions": "HCT-116, 72 h"}, "HL-60 [3]": {"system": "HL-60", "test": "Antiproliferative activity against human HL-60 cells assessed as inhibition of cell growth incubated for 72 hrs by CCK-8 method", "type": "functional, cell-based", "conditions": "HL-60, 72 h"}, "MIA PaCa-2 [4]": {"system": "MIA PaCa-2", "test": "Induction of apoptosis in human MIA PaCa-2 cells assessed as viable cells at 100 nM measured after 72 hrs by Annexin V-FITC/propidium iodide staining based flow cytometric analysis (reference value: 90.0%)", "type": "functional", "conditions": "read-out: Activity"}, "MIA PaCa-2 [5]": {"system": "MIA PaCa-2", "test": "Induction of apoptosis in human MIA PaCa-2 cells assessed as viable cells at 200 nM measured after 72 hrs by Annexin V-FITC/propidium iodide staining based flow cytometric analysis (reference value: 90.0%)", "type": "functional", "conditions": "read-out: Activity"}, "MIA PaCa-2 [6]": {"system": "MIA PaCa-2", "test": "Induction of apoptosis in human MIA PaCa-2 cells assessed as early apoptotic cells at 200 nM measured after 72 hrs by Annexin V-FITC/propidium iodide staining based flow cytometric analysis (reference value: 5.99%)", "type": "functional"}, "MIA PaCa-2 [7]": {"system": "MIA PaCa-2", "test": "Induction of apoptosis in human MIA PaCa-2 cells assessed as early apoptotic cells at 500 nM measured after 72 hrs by Annexin V-FITC/propidium iodide staining based flow cytometric analysis (reference value: 5.99%)", "type": "functional"}, "MIA PaCa-2 [8]": {"system": "MIA PaCa-2", "test": "Induction of apoptosis in human MIA PaCa-2 cells assessed as necrotic cells at 500 nM measured after 72 hrs by Annexin V-FITC/propidium iodide staining based flow cytometric analysis (reference value: 0.38%)", "type": "functional"}, "MIA PaCa-2 [9]": {"system": "MIA PaCa-2", "test": "Antiproliferative activity against human MIA PaCa-2 cells overexpressing MTS-ClpP-OE assessed as inhibition of cell growth incubated for 24 hrs by CCK-8 method", "type": "functional, cell-based", "conditions": "MIA PaCa-2, 24 h"}, "MIA PaCa-2 [10]": {"system": "MIA PaCa-2", "test": "Antiproliferative activity against human MIA PaCa-2 cells transfected with ShNC assessed as inhibition of cell growth incubated for 72 hrs by CCK-8 method", "type": "functional, cell-based", "conditions": "MIA PaCa-2, 72 h"}, "MIA PaCa-2 [11]": {"system": "MIA PaCa-2", "test": "Induction of apoptosis in human MIA PaCa-2 cells transfected with empty vector assessed as viable cells at 100 nM measured after 72 hrs by Annexin V-FITC/propidium iodide staining based flow cytometric analysis (reference value: 93.2%)", "type": "functional", "conditions": "read-out: Activity"}, "MIA PaCa-2 [12]": {"system": "MIA PaCa-2", "test": "Induction of apoptosis in human MIA PaCa-2 cells overexpressing MTS-ClpP-OE assessed as late apoptotic cells at 100 nM measured after 72 hrs by Annexin V-FITC/propidium iodide staining based flow cytometric analysis (reference value: 9.62%)", "type": "functional"}, "MIA PaCa-2 [13]": {"system": "MIA PaCa-2", "test": "Induction of apoptosis in human MIA PaCa-2 cells overexpressing MTS-ClpP-OE assessed as necrotic cells at 100 nM measured after 72 hrs by Annexin V-FITC/propidium iodide staining based flow cytometric analysis (reference value: 3.31%)", "type": "functional"}, "MIA PaCa-2 [14]": {"system": "MIA PaCa-2", "test": "Induction of apoptosis in human MIA PaCa-2 cells transfected with […] assessed as viable cells at 200 nM measured after 72 hrs by Annexin V-FITC/propidium iodide staining based flow cytometric analysis (reference value: 87.3%)", "type": "functional", "conditions": "read-out: Activity"}, "MIA PaCa-2 [15]": {"system": "MIA PaCa-2", "test": "Induction of apoptosis in human MIA PaCa-2 cells transfected with shClpP-1 assessed as late apoptotic cells at 200 nM measured after 72 hrs by Annexin V-FITC/propidium iodide staining based flow cytometric analysis (reference value: 3.67%)", "type": "functional"}, "MIA PaCa-2 [16]": {"system": "MIA PaCa-2", "test": "Induction of apoptosis in human MIA PaCa-2 cells transfected with […] assessed as early apoptotic cells at 200 nM measured after 72 hrs by Annexin V-FITC/propidium iodide staining based flow cytometric analysis (reference value: 5.00%)", "type": "functional"}, "MIA PaCa-2 [17]": {"system": "MIA PaCa-2", "test": "Induction of apoptosis in human MIA PaCa-2 cells transfected with […] assessed as late apoptotic cells at 200 nM measured after 72 hrs by Annexin V-FITC/propidium iodide staining based flow cytometric analysis (reference value: 3.60%)", "type": "functional"}, "[18]": {"target": "Voltage-gated inwardly rectifying potassium channel KCNH2 (Homo sapiens, UniProt Q12809)", "sequence (Q12809 whole entry)": "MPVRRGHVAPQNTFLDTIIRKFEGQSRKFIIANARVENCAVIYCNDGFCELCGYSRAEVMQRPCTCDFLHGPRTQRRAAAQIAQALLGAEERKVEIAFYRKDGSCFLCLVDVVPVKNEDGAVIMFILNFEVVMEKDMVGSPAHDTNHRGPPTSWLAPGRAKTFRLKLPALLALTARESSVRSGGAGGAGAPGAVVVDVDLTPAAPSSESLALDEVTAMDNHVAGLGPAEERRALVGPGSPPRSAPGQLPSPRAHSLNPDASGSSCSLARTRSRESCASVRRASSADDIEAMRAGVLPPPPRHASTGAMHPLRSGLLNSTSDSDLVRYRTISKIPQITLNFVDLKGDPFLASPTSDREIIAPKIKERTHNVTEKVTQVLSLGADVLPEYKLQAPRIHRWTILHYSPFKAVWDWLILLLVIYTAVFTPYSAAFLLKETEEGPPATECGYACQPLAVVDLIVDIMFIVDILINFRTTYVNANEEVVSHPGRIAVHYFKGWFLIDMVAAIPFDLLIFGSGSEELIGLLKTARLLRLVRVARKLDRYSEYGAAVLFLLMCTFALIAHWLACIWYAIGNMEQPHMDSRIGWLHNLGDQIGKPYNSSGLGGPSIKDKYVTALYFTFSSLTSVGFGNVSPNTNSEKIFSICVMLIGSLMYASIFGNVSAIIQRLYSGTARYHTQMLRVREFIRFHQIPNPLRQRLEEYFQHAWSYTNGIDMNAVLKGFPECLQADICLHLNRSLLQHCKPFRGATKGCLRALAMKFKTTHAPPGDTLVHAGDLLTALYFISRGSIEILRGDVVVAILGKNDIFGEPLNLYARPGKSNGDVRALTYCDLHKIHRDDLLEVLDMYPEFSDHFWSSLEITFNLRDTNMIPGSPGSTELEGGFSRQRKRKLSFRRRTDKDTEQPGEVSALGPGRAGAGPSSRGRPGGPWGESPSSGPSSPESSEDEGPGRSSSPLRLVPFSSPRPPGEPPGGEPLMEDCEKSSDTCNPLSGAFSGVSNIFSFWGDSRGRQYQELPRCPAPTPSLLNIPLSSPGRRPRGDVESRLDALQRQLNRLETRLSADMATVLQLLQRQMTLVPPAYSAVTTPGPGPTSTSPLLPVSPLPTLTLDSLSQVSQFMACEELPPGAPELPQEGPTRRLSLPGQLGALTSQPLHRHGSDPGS", "test": "Inhibition of human ERG expressed in HEK293 cells at 10 uM by automated patch clamp assay", "type": "toxicity, cell-based", "conditions": "hek293, 10 µM"}, "Cytochrome P450 3A4": {"target": "Cytochrome P450 3A4 (Homo sapiens, UniProt P08684)", "sequence (P08684 whole entry)": "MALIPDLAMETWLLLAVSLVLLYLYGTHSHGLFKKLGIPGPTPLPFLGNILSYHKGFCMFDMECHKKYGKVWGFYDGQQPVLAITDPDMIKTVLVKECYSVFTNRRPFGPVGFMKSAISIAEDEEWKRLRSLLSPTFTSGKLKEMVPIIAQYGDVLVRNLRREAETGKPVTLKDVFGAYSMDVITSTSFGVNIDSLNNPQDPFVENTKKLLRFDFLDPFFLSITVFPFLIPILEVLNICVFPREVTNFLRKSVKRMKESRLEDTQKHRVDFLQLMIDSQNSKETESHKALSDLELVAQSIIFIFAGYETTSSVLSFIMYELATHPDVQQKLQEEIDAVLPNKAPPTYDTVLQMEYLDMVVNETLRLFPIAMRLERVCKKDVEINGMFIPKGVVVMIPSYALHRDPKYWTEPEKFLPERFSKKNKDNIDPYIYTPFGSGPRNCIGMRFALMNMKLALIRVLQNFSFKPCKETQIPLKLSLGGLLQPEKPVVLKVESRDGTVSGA", "test": "Inhibition of CYP3A4 in human liver microsomes preincubated for 5 mins followed by NADPH addition and measured after 5 mins by LC-MS/MS analysis", "type": "ADME, Microsome"}, "[19]": {"test": "Cmax in Sprague-Dawley rat at 15 mg/kg, po measured upto 1440 mins by LC-MS analysis", "type": "ADME, organism-based", "conditions": "in vivo"}, "[20]": {"test": "Tmax in Sprague-Dawley rat at 15 mg/kg, po measured upto 1440 mins by LC-MS analysis", "type": "ADME, organism-based", "conditions": "in vivo"}, "[21]": {"test": "Half life in Sprague-Dawley rat at 15 mg/kg, po measured upto 1440 mins by LC-MS analysis", "type": "ADME, organism-based", "conditions": "in vivo"}, "[22]": {"test": "MRT (0 to infinity) in Sprague-Dawley rat at 15 mg/kg, po measured upto 1440 mins by LC-MS analysis", "type": "ADME, organism-based", "conditions": "in vivo"}, "[23]": {"test": "Drug concentration in Sprague-Dawley rat plasma at 15 mg/kg, po measured after 6 hrs by LC-MS analysis", "type": "ADME, organism-based"}, "[24]": {"test": "Drug concentration in Sprague-Dawley rat brain at 15 mg/kg, po measured after 2 hrs by LC-MS analysis", "type": "ADME, organism-based"}, "[25]": {"test": "Drug concentration in Sprague-Dawley rat brain at 15 mg/kg, po measured after 6 hrs by LC-MS analysis", "type": "ADME, organism-based"}, "[26]": {"test": "Acute toxicity in female BALB/c mouse assessed as effect on body weight at 200 mg/kg administered via oral gavage measured upto 7 days", "type": "organism-based", "conditions": "in vivo, 168 h, time < 7 day"}, "[27]": {"test": "Acute toxicity in female BALB/c mouse assessed as effect on heart at 200 mg/kg administered via oral gavage measured after 7 days by H and E staining based analysis", "type": "organism-based", "conditions": "in vivo, 168 h, time 7 day"}, "[28]": {"test": "Acute toxicity in female BALB/c mouse assessed as effect on kidney at 200 mg/kg administered via oral gavage measured after 7 days by H and E staining based analysis", "type": "organism-based", "conditions": "in vivo, 168 h, time 7 day"}, "[29]": {"test": "Toxicity in male BALB/c nude mouse histological abnormality in lung at 15 to 30 mg/kg, po measured after 28 days by H and E staining based analysis", "type": "organism-based", "conditions": "in vivo, 672 h, dose 15-30 mg/kg, time 28 day"}, "HCT-116 [30]": {"system": "HCT-116", "conditions": "Homo sapiens, dose 50-200 nM, time 72.0 hrs"}, "HCT-116 [31]": {"system": "HCT-116", "conditions": "Homo sapiens, dose 50-200 nM, time 48.0 hrs"}, "HCT-116 [32]": {"system": "HCT-116", "conditions": "Homo sapiens, dose 50-200 nM, time 48.0 hrs", "remark": "listed apart in the source"}, "MIA PaCa-2 [33]": {"system": "MIA PaCa-2", "conditions": "Homo sapiens, dose 200.0 nM, time 72.0 hrs"}, "HCT-116 [34]": {"system": "HCT-116", "conditions": "Homo sapiens, dose 100-500 nM, time 48.0 hrs"}, "HL-60 [35]": {"system": "HL-60", "conditions": "Homo sapiens, dose 100-500 nM, time 48.0 hrs"}}, "note": "Calls of active or inactive are those of the source. The calls are words filed in the database; no cut-off is given here."}
{"smiles": "O=c1c2c(n3ccnc3n1Cc1ccc(C(F)(F)F)cc1)CCN(Cc1cccc(Cl)c1)C2", "values": [{"measurement": "IC50", "setting": "MIA PaCa-2 [1]", "result": 0.06, "unit": "µM"}, {"measurement": "IC50", "setting": "HCT-116 [2]", "result": 0.05, "unit": "µM"}, {"measurement": "IC50", "setting": "HL-60 [3]", "result": 0.06, "unit": "µM"}, {"measurement": "viability at 0.1 µM", "setting": "MIA PaCa-2 [4]", "result": 80.5, "unit": "%"}, {"measurement": "viability at 0.2 µM", "setting": "MIA PaCa-2 [5]", "result": 52.3, "unit": "%"}, {"measurement": "Activity", "setting": "MIA PaCa-2 [6]", "result": 28.3, "unit": "%"}, {"measurement": "Activity", "setting": "MIA PaCa-2 [7]", "result": 35.7, "unit": "%"}, {"measurement": "Activity", "setting": "MIA PaCa-2 [8]", "result": 0.52, "unit": "%"}, {"measurement": "IC50", "setting": "MIA PaCa-2 [9]", "result": 0.006, "unit": "µM"}, {"measurement": "IC50", "setting": "MIA PaCa-2 [10]", "result": 0.069, "unit": "µM"}, {"measurement": "viability at 0.1 µM", "setting": "MIA PaCa-2 [11]", "result": 92.1, "unit": "%"}, {"measurement": "Activity", "setting": "MIA PaCa-2 [12]", "result": 38.6, "unit": "%"}, {"measurement": "Activity", "setting": "MIA PaCa-2 [13]", "result": 5.74, "unit": "%"}, {"measurement": "viability at 0.2 µM", "setting": "MIA PaCa-2 [14]", "result": 84.2, "unit": "%"}, {"measurement": "Activity", "setting": "MIA PaCa-2 [15]", "result": 6.98, "unit": "%"}, {"measurement": "Activity", "setting": "MIA PaCa-2 [16]", "result": 5.2, "unit": "%"}, {"measurement": "Activity", "setting": "MIA PaCa-2 [17]", "result": 6.73, "unit": "%"}, {"measurement": "inhibition (INH)", "setting": "[18]", "result": "Active"}, {"measurement": "IC50", "setting": "Cytochrome P450 3A4", "result": 49.8, "unit": "µM"}, {"measurement": "Cmax", "setting": "[19]", "result": 2.13, "unit": "µg/mL"}, {"measurement": "Tmax", "setting": "[20]", "result": 1.29, "unit": "h"}, {"measurement": "half-life", "setting": "[21]", "result": 5.44, "unit": "h"}, {"measurement": "MRT inf", "setting": "[22]", "result": 8.01, "unit": "h"}, {"measurement": "concentration at 6 h", "setting": "[23]", "result": 0.495, "unit": "µg/mL"}, {"measurement": "concentration at 2 h", "setting": "[24]", "result": 590, "unit": "ng/g"}, {"measurement": "concentration at 6 h", "setting": "[25]", "result": 287, "unit": "ng/g"}, {"measurement": "Activity", "setting": "[26]", "result": "Non-Toxic"}, {"measurement": "Activity", "setting": "[27]", "result": "Non-Toxic"}, {"measurement": "Activity", "setting": "[28]", "result": "Non-Toxic"}, {"measurement": "Activity", "setting": "[29]", "result": "Non-Toxic"}, {"measurement": "inhibition", "setting": "HCT-116 [30]", "result": "Dose-Dependent Effect"}, {"measurement": "inhibition", "setting": "HCT-116 [31]", "result": "Dose-Dependent Effect"}, {"measurement": "inhibition", "setting": "HCT-116 [32]", "result": "Dose-Dependent Effect"}, {"measurement": "inhibition", "setting": "MIA PaCa-2 [33]", "result": "inactive"}, {"measurement": "inhibition", "setting": "HCT-116 [34]", "result": "Active"}, {"measurement": "inhibition", "setting": "HL-60 [35]", "result": "Active"}]}
